Reference: ChEMBL document CHEMBL1240436, “Synthesis and biological evaluation of novel 2,4'-bis substituted diphenylamines as anticancer agents and potential epidermal growth factor receptor tyrosine kinase inhibitors” (Eur J Med Chem, 2010)

tested on: MCF7; test: Cytotoxicity against human MCF7 cells after 48 hrs by SRB assay; type: functional, cell-based

In order of rising IC50:
1. c1ccc(CSc2nnc(-c3ccc(Nc4ccccc4-c4nnc(SCc5ccccc5)o4)cc3)o2)cc1  0.73 µM
2. COc1ccc(/C=N/NC(=O)c2ccc(Nc3ccccc3C(=O)N/N=C/c3ccc(OC)c(OC)c3)cc2)cc1OC  0.81 µM
3. CCNc1nnc(-c2ccc(Nc3ccccc3-c3nnc(NCC)s3)cc2)s1  0.94 µM
4. C=CCSc1nnc(-c2ccc(Nc3ccccc3-c3nnc(SCC=C)o3)cc2)o1  1.05 µM
5. CN(C)c1ccc(/C=N/NC(=O)c2ccc(Nc3ccccc3C(=O)N/N=C/c3ccc(N(C)C)cc3)cc2)cc1  1.23 µM
6. Sc1nnc(-c2ccc(Nc3ccccc3-c3nnc(S)o3)cc2)o1  2 µM
7. CCn1c(S)nnc1-c1ccc(Nc2ccccc2-c2nnc(S)n2CC)cc1  2.38 µM
